Some results are limits rather than exact numbers.

The term EC50 denotes the concentration at which the effect is half-maximal.

Assay [1] addresses T1, ERRγ (Homo sapiens, UniProt P62508).
T1 sequence (P62508 1-458): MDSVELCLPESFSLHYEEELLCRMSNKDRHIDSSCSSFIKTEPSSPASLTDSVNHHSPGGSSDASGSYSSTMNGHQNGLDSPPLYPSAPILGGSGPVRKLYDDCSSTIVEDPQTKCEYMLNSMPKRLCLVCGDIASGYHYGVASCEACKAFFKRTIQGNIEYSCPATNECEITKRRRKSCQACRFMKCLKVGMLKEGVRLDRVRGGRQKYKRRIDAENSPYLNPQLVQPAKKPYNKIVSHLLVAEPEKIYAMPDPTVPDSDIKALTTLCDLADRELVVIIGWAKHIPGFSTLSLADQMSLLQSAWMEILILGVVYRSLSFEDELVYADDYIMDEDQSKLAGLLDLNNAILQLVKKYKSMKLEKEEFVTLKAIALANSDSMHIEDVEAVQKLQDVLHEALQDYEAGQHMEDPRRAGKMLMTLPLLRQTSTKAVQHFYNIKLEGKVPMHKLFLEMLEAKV
As to conditions: purportedly, Zuercher et al. 2005; cited from earlier work.

Assay [2] concerns the target T2, ERRβ (Homo sapiens, UniProt O95718).
T2 sequence (O95718 1-433): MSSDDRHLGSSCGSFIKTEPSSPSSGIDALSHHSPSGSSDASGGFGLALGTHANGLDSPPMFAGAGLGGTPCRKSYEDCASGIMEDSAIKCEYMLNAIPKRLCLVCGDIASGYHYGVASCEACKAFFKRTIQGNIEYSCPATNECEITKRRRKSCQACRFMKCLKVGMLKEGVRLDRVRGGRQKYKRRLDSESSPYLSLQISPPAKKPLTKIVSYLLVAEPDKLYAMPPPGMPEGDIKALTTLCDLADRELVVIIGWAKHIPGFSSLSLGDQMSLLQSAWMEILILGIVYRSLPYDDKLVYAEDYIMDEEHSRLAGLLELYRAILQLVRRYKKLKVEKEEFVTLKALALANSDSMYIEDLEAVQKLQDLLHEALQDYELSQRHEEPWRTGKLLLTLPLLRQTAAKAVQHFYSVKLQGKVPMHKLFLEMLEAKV
To be noted: purportedly, Zuercher et al. 2005; cited from earlier work.

The subject of assay [3] is primary mouse myotubes. Briefly: Gene expression by real time quantitative PCR in primary mouse myotubes. The assay is classed as cell-based. As to conditions: 24 h. As to the method: (§1) Primary mouse myoblasts from FVB mice were isolated and maintained as described in Bare et al. For experimentation, mouse myoblasts were grown to 80% confluence in F-10/Ham's media containing 20% fetal bovine serum, 1% Penicillin/Streptomycin and 2.5 ng/mL bFGF (human recombinant). The cells were then plated to 700,000 cells per well in 6-well plates, and allowed to differentiate into myotubes for 36 to 48 hours in DMEM containing 5% equine serum and Penicillin/Streptomycin. […] Assays performed included analysis of gene expression by real time quantitative PCR (RT-PCR), cytochrome c ELISA, citrate synthase assay, fatty acid oxidation assay, and a respiration assay. […] Each dose was tested in trplicate, and a set of wells treated with an equivalent volume of DMSO used was included in every experimental readout for control purposes.
For the purpose of assessing gene expression by RT-PCR, RNA was isolated from cell lysates, and cDNA was subsequently synthesized from this RNA. For RNA isolation, cells were homogenized in TRIzol (Invitrogen, catalog number 15596-026, Carlsbad, Calif.), and total RNA was isolated following the manufacturer's instructions. RNA was quantified using the spectrophotometer.
Reverse transcription was performed using the BD Sprint™ PowerScriptT™ kit from BD Biosciences (catalog number 639562). Quantitative real time PCR for the following genes was performed using Assay-on-Demand primer probes from Applied Biosystems (See Post-text Table 8-1 for catalog numbers): B2M, ERRγ, ERRβ, ERRα, PGC-1α, PGC-1β, PPARα, PPARγ, PPARδ, COX-4, cytochrome c, UQCRB, CPT-1b, LCAD, MCAD, IDH3a, ATP-5b, UCP-2, and UCP-3.
Taqman real time quantitative PCR was performed and analyzed following the manufacturer's instructions (Applied Biosystems). Specifically, amplification was performed in triplicate, in a 10 μl reaction mixture. The reaction mixture included: 1× TaqMan® Universal PCR Master Mix (Applied Biosystems, catalog number 4304437), 1× of Assay-on-Demand primer probe, and 2 μl of cDNA sample. Gene expression was calculated by normalizing to total cDNA as measured by B2M endogenous control (Applied Biosystems, catalog number Mm00437762_m1). The samples were initially incubated for 2 min at 50° C. for optimum uracyl-N-glycosylase activity. The PCR program started with a 95° C. denaturing for 10 min, followed by 40 cycles of 95° C./15 sec and 60° C./1 min in a 384-well thermal cycler (Perkin-Elmer Applied Biosystems). Each amplification run contained “No Template” controls (buffer and primers only). Amplification data were collected by the 7700 Sequence Detector and analyzed using the Sequence Detection System software developed by Perkin-Elmer (Applied Biosystems). The fractional cycle number reflecting a positive PCR result is called the cycle threshold (Ct).
Average gene expression values were calculated for each group relative to B2M, using 2^−ΔΔCt (as described by Applied Biosystems, Foster City, Calif.) with the expression in the vehicle treated cells (0 μM) normalized to a value of 1. The data are expressed as mean±SEM (n=3 replicate wells). Statistical significance was measured using Student's t test.

Assay [4] deals with primary mouse myotubes. The assay can be described thus: Cytochrome c ELISA in primary mouse myotubes. The assay is classed as cell-based. As to conditions: 30 μM, 24 hours, vs vehicle. How it is done: as §1
The cytochrome c enzyme-linked immunosorbent assay (ELISA) was performed using the RatMouse Cytochrome c Immunoassay kit from R&D Systems (catalog number MCTC0, R&D Systems, Minneapolis, Minn.) following the manufacturer's instructions.
On the technique in general: ELISA stands for enzyme-linked immunosorbent assay.

Assay [5] has as its target T3, ERRα (Homo sapiens, UniProt P11474).
T3 sequence (P11474 1-423): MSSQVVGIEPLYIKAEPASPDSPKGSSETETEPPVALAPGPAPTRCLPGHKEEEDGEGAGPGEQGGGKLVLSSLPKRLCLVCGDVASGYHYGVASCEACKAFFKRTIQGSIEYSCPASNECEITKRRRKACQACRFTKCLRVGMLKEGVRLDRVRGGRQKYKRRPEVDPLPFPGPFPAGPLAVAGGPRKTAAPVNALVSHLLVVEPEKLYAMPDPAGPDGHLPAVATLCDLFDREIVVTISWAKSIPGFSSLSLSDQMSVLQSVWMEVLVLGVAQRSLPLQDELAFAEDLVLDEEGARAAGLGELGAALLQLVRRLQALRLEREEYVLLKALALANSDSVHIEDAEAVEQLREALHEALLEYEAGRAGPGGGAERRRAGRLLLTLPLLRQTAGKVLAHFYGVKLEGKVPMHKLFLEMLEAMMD
To be noted: Zuercher et al. 2005; cited from earlier work.

The test system of assay [6] is ERs. To be noted: Zuercher et al. 2005; cited from earlier work.
The target in assay [7] is T4, (His)6-hERRγ LBD (Homo sapiens, UniProt P62508).
T4 sequence (P62508 233-457 limits assumed): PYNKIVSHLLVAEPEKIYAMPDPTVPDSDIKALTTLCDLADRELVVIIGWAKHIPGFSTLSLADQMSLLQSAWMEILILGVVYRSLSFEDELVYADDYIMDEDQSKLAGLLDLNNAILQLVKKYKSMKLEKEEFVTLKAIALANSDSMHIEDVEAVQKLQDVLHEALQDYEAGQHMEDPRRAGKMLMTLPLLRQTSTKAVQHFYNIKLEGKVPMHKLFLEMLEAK
Briefly: FRET assay of agonist-induced activation of ERRγ with coactivator peptide PGC-1α. Format: biochemical. As to conditions: for maximal increase in FRET signal: highest concentration tested / saturating concentrations. As to the method:
The FRET assay is designed to detect agonist-induced activation of ERRγ in the presence of the coactivator peptide PGC-1α. […] Mix 1 contained antibody, hERRγ LBD in buffer in a volume of 19 μL and was added to 30 μL of Mix 2 which contained Cy5-peptide in buffer (1. 6xHis-ERRγ-LBD, 3.6 mg/ml, MW 27 KDa; 2. Cy5-PGC-1 peptide from AnaSpec; 3. Other buffer components from Sigma; 4. EU-antiHis6-Ab from Perkin Elmer; and 5. Test compounds.). The assays were carried out in black 384-well plates and incubated at room temperature for 3 hrs before FRET signals were measured using a Wallac Victor 2 (Perkin Elmer) plate reader. The ratio of emission signals (665 nm/615 nm) was used to determine the FRET assay response. In some cases, the FRET signal to background ratio was used and this is simply defined as the FRET ratio in the presence of protein […] FRET ratio in the absence of protein. The test compounds were dissolved in DMSO at 10 mM and used as indicated.
The ability of agonist compounds to induce an increased FRET response between the Europium-labeled anti-(His)6 antibody/(His)6-hERRγ LBD complex and Cy5-[…] […] The compounds were solubilized in 10 mM DMSO and the concentration range of the titration was from 100 μM down to 2 nM. The final DMSO concentration was 2%. A DMSO control (no compound) at 2% was also prepared. All samples were made in duplicate.

Assay [8] concerns primary mouse myotubes. The assay can be described thus: Respiration assay (oxygen consumption, Clark electrode) in primary mouse myotubes. The assay is classed as cell-based. As to conditions: 30 μM, 24 hr. How it is done: as §1
Cells were washed once with phosphate-buffered saline (PBS) and treated for 5 min at 37° C. with 2 ml of trypsin (Mediatech, catalog number 25-052-CI). Without removing trypsin, 10 ml of DMEM plus 10% FBS was added into each well. The cells were transferred to a 15 ml tube and centrifuged for 5 min at 1000 rpm. The cells were washed once with the medium and pelleted before being resuspended in the assay buffer containing 25 mM glucose (Sigma, catalog number G-5400), 1 mM pyruvate (Invitrogen, catalog number 11360-070) and 2% bovine serum albumin (BSA) (MP Biomedicals, catalog number 103703) in D-PBS (Invitrogen, catalog number 14040-133). The cell suspension was diluted to 1×10^6 cells per ml in the assay buffer and kept at 37° C. until used. Oxygen consumption was measured with a Clark electrode according to the instructions provided by Hansatech (Norfolk, UK). One half of the cell suspension was used for each measurement. […] The rate of respiration was measured by calculating the slope of the flux of oxygen consumption using the software provided by the manufacturer.

The subject of assay [9] is primary mouse myotubes. The assay can be described thus: Citrate synthase assay in primary mouse myotubes. Format: cell-based. As to conditions: 24 hours. How it is done: as §1
The citrate synthase assay was performed following the procedure described in above in this application.

The mark [10] stands for this setting: 30 μM, relative to B2M, vehicle = 1.

`CC(C)c1ccc(/C=N/NC(=O)c2ccc(O)cc2)cc1` [AJQ710, 4-hydroxy-N′-(4-isopropylphenylmethylidene)-benzohydrazide]: the “activation of ERRγ” value in assay [1] was “activates”. In addition, the “activation of ERRβ (printed ERRP)” value in [2] is reported as “activates”. Further, in assay [3] (10 μM, relative to B2M, vehicle = 1), the UCP-2 highest expression turned out to be 1.5 fold. Besides, in assay [3] (setting [10]), the ATP-5b expression increase was 1.6 fold, the COX-4 expression increase came out at 2 fold, the CPT-1b expression increase entry is “over 3 fold” and the ERRα expression increase was 3.7 fold. Further, in assay [3] (setting [10]), the ERRβ expression increase is given as 1.5 fold, the ERRγ expression is given as 1.4 fold, the IDH3α expression increase entry is on record as “over 2 fold” and the LCAD expression increase worked out at 2.8 fold. Besides, in [3] (setting [10]), the MCAD expression increase is on record as 1.6 fold, the PGC-1α expression was 1.9 fold, the PPARγ maximal expression worked out at 2.2 fold and the UCP-3 expression increase entry is “over 3 fold”. Further, in assay [3] (setting [10]), the UQCRB expression increase turned out to be 2 fold and the “cytochrome c expression increase” value was found to be 3.7 fold. Besides, in assay [3] (1-30 μM), the PPARα expression result is “no change in expression” and the PPARδ expression result is listed as “no change in expression”. In addition, in assay [3] (relative to B2M, vehicle = 1), the PGC-1β expression was 1.8 fold. Besides, the “increase of cytochrome c protein” value in [4] was found to be 88%. Further, the “activation of ERRα” value in assay [5] is on record as “does not activate”. The “activation of the ERs” value in assay [6] is “does not activate”. Also, in assay [7], the “maximal increase in FRET signal” value is reported as not above 60%. Moreover, the “increase in basal respiration” value in assay [8] (vs vehicle treated controls) is reported as 37%. In [8] (vs vehicle-treated control cells), the “increase in respiration rate in the presence of FCCP” value is reported as 32%. Also, the “increase in oligomycin-insensitive respiration (proton leak)” value in assay [8] (not statistically significant) amounted to 36%. Also, the “increase in citrate synthase activity” value in assay [9] (3 μM) turned out to be 9%. In addition, in [9] (10 μM), the “increase in citrate synthase activity” value was determined as 8%. Besides, the “increase in citrate synthase activity” value in assay [9] (30 μM) stood at 28%.

In the case of `CCN(CC)c1ccc(/C=N/NC(=O)c2ccc(O)cc2)cc1` [LCN446, N′-(4-(diethylamino)phenylmethylidene)-4-hydroxybenzohydrazide], the “maximal increase in FRET signal” value in assay [7] is given as 70%. The EC50 in [7] (titration 100 μM down to 2 nM, 2% DMSO, duplicate, read-out: EC50 of FRET response) turned out to be 0.54 µM.

(Values after patent publication US20090281191A1, “USE OF ORGANIC COMPOUNDS” (priority 2006, published 2009).)
